Laboratory results as given in US5420276A, “Analogs of oxetanyl purines and pyrimidines” (Abbott Laboratories, priority 1993, dated 1995).
In brackets after ≈: the same amount, converted by molar mass.

Columns and labels:
[1] = test system: HSV-1 (E-377); assay: CPE inhibition assay (MTT), HSV-1 (E-377) in Vero cells; assay type: cell-based, herpes simplex virus type 1; details: Human alphaherpesvirus 1, inhibited CPE by 50%
Procedure: Vero cells were pregrown as monolayers in wells of COSTAR 96-well tissue culture plates using suitable cell culture media. Stock viruses were pretitered according to the method of Reed and Muench (Amer. J. Hyg. 27 493 (1938)) and diluted in cell culture medium to yield 32 CCID50 (cell culture infectious dose, 50%) units per 0.1 mL. Antiviral assays were designed to test six concentrations of each compound, from cytotoxic to noncytotoxic levels, in triplicate against each of the challenge viruses in microtiter plate wells containing cell monolayers. To each of the replicate cell cultures were added 0.1 mL of the test-compound solution and 0.1 mL of virus suspension. Two compounds were evaluated per plate. The following controls were included:
(1) Cell controls containing cells+medium;
(2) Untreated, virus-infected cell controls;
(3) Test-compound cytotoxicity controls containing uninfected, test-compound treated cells;
(4) Test-compound color controls-test-compound+medium (no cells); and
(5) Reagent (experiment medium) controls-medium only (no cells).
The covered plates were incubated at 37° C. in a humidified atmosphere containing 2% CO2. When cytopathogenic effect (CPE) in untreated virus control wells reached 100%, 20 μL of 3-(4,5-dimethyl-thiazol-2-yl)-2,5-diphenyl tetrazolium bromide (MTT) (dissolved in PBS at 5 mg/mL) was pipetted into each of the plate wells. The plates were incubated at 37° C. for six hours; then 40 μL of 30% SDS (in 0.02N HCl) was added to each well. After overnight incubation at 37° C., the blue color or the MTT formazan was measured spectrophotometrically at 570 nm. The optical density (OD) value of each culture is a function of the amount of formazan produced which is proportional to the number of viable cells. A computer program was utilized to calculate the percent (CPE) reciprocal of % CPE reduction) of the virus-infected wells and % cell viability of the uninfected test-compound control wells.
The IC50 value is the minimum test-compound concentration (μg/mL) that inhibited CPE by 50% calculated by using a regression analysis program for semilog curve fitting. The TC25 value is the minimum test-compound concentration (μg/mL) that reduced cell viability by 25%.

[2] = test system: Herpes Simplex Virus Type 1; assay: Neutral red dye uptake assay for antiviral activity, HSV-1 in Vero cells; assay type: cell-based; details: Human alphaherpesvirus 1, HSV-1, Vero, concentration at which 50% CPE would be observed, read-out: MIC50
Procedure: Vero cell monolayers were harvested by trypsinization. The number of viable cells per ml. was determined by staining an aliquot with trypan blue and counting in a hemocytometer. Cell densities were adjusted in growth medium to contain 4×10^5 cells/mi. 96-well sterile tissue culture plates were seeded with 100 μl/well of the adjusted cell suspensions, i.e., 4×10^4 cells/well. Seeded plates were incubated overnight at 37° C. with CO2.
After overnight incubation, monolayers were approximately confluent. The growth medium was removed and the monolayers in each cell were infected with 100 μl of virus diluted in maintenance medium to produce approximately 90% cytopathogenic effect (CPE) after 2 to 3 days incubation. The virus was allowed to adsorb for 1 hour at 37° C. with 4 to 6% CO2. Controls for cell growth were overlayed with virus-free maintenance medium. The maintenance medium containing residual virus was removed.
The test compounds were dissolved and/or diluted in maintenance medium to the concentration desired for testing and were added to the wells of the plate. Aliquots (100 μl ) of each concentration were added to wells in replicate (duplicate or triplicate). Controls for virus activity were overlayed with drug-free maintenance medium. Replicate wells containing only maintenance medium served as controls for background absorbance levels.
After incubation, the medium was removed from all the wells. 100 μl of neutral red solution was added to each well and the plate was incubated at 37° C. without CO2 for 2 hours. After the 2 hour incubation, the excess neutral red solution was removed. […]
The neutral red stain taken up by the viable cells was extracted by adding 100 μl/well of acidified methanol, pH 1.0. […] The amount of neutral red stain extracted into the methanol was quantified by determining the absorbance at a wavelength of 540 nm.
The percent CPE in virus controls was determined by the following formula: [formula]
The percent CPE in cells infected with virus and treated with the test compound was determined by the following formula: [formula] […]

## O=c1[nH]c(=O)n([C@@H]2O[C@H](CO)[C@H]2CO)cc1C=CBr [Example 44, 1-([2'R, 3'R, 4'S]-3',4'-Bis(hydroxymethyl)-2'-oxetanyl)-5-(2-bromo-1-vinyl)uracil]
[1]
  IC50: 0.072 µg/mL (≈ 0.216 µM)
[2]
  EC50: 0.09 µg/mL (≈ 0.27 µM)
